ChEMBL document CHEMBL4428074, “The discovery of 2,5-isomers of triazole-pyrrolopyrimidine as selective Janus kinase 2 (JAK2) inhibitors versus JAK1 and JAK3” (Bioorg Med Chem, 2016)

Columns and labels:
[1] = target: Tyrosine-protein kinase JAK1 (Homo sapiens, UniProt P23458)
[2] = target: T1, Tyrosine-protein kinase JAK3 (Homo sapiens, UniProt P52333)
T1 sequence (P52333 whole entry): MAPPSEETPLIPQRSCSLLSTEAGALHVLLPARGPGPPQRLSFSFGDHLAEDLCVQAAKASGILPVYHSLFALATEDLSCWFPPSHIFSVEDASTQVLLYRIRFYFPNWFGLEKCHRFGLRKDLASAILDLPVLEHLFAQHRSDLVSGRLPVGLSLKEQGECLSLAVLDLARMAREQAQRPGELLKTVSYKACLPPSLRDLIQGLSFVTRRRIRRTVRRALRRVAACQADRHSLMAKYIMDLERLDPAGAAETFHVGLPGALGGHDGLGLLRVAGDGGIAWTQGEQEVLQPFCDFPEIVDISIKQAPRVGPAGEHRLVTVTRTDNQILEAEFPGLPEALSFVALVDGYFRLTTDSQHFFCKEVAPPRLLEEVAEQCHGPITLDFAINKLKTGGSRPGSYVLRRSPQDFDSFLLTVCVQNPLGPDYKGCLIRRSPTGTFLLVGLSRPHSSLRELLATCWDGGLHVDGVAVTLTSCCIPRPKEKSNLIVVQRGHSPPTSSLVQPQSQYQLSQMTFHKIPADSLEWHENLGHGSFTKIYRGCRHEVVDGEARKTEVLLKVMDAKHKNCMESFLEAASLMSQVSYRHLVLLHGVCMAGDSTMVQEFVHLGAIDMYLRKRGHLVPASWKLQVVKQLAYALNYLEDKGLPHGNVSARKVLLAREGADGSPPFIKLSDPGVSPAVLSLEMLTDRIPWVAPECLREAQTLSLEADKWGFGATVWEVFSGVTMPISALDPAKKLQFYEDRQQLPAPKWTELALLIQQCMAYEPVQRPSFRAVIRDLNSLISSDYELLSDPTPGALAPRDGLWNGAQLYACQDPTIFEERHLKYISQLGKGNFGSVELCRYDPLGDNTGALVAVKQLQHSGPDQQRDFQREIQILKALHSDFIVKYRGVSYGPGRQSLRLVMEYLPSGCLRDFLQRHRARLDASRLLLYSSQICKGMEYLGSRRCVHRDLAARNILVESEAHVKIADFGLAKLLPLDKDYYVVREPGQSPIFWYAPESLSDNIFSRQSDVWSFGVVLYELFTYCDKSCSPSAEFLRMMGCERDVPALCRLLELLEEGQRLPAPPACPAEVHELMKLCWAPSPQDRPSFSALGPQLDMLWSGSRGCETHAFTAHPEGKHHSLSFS
Description: Inhibition of JAK3 (unknown origin) measured after 1 hr in presence of ATP by TR-FRET assay

HEL 92.1.7 [3] = test: cells; type: functional; conditions: Homo sapiens, HEL 92.1.7, 72 h
Description: Antiproliferative activity against HEL 92.1.7 cells assessed as viable cells at 10 uM measured after 3 days by WST-1 assay

HCC827 = type: functional, Homo sapiens; conditions: at 30 µM
Description: Cytotoxicity against wild-type human HCC827 cells at 30 uM measured after 72 hrs by MTT assay

HEL 92.1.7 [4] = type: functional, Homo sapiens
Description: Antiproliferative activity against HEL 92.1.7 cells assessed as inhibition of cell growth

HEL 92.1.7 [5] = test: cells; conditions: Homo sapiens, HEL 92.1.7, 72 h
Description: Antiproliferative activity against HEL 92.1.7 cells assessed as viable cells measured after 3 days by WST-1 assay

Chain of Tyrosine-protein kinase JAK1 (P23458 whole entry): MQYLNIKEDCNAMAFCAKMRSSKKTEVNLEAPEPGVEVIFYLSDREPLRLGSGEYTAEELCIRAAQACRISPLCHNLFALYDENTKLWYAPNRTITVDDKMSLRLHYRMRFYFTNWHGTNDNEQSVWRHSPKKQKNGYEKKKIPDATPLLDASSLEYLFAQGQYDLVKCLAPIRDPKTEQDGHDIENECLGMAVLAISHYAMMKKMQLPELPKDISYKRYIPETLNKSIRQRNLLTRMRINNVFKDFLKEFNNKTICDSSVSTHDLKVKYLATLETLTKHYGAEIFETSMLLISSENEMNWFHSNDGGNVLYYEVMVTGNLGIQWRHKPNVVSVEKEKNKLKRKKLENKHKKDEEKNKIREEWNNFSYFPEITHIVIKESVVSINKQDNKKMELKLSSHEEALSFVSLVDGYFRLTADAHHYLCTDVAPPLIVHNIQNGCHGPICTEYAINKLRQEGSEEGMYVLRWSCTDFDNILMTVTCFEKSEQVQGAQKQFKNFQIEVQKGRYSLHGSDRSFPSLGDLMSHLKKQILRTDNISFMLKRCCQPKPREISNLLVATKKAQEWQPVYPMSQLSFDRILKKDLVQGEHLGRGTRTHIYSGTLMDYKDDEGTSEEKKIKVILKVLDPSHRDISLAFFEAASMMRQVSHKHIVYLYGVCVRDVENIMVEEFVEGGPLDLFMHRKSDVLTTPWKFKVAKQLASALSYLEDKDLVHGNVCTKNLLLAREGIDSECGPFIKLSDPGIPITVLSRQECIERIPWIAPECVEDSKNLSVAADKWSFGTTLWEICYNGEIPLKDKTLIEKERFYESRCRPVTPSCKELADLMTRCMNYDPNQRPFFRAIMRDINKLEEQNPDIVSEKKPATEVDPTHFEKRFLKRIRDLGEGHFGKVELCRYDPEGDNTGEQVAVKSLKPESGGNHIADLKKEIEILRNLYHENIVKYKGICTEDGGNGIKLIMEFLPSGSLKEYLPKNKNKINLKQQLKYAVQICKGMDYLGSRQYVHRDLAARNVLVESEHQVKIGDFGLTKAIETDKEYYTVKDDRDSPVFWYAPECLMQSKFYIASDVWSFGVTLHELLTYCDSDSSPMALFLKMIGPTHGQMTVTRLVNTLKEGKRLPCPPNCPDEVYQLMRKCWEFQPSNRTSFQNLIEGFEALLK

Row | IC50 [1] [nM] | SMILES | inhibition at 10 µM (HEL 92.1.7 [3]) [%] | other results
1 | 72 | Cc1nn(CCCC#N)nc1-c1ncnc2[nH]ccc12 | 65.3 | IC50 [2]: 1760 nM
2 | 186 | Cc1nn(CCCCCC#N)nc1-c1ncnc2[nH]ccc12 | – | –
3 | 138 | Cc1nn(CCCCC#N)nc1-c1ncnc2[nH]ccc12 | 41.3 | –
4 | 82 | Cc1nn(CCCC(F)(F)F)nc1-c1ncnc2[nH]ccc12 | 9.1 | –

The remaining lines, values behind:

Row | SMILES | IC50 [1] [nM] | inhibition at 10 µM (HEL 92.1.7 [3]) [%] | other results
5 | N#CC[C@H](C1CCCC1)n1cc(-c2ncnc3[nH]ccc23)cn1 [RUXOLITINIB] | – | – | inhibition (INH) (HCC827): 16.6%; growth inhibition (GI) (HEL 92.1.7 [4]): 55%; IC50 (HEL 92.1.7 [5]): 14700 nM
6 | Cc1nn(CC2CCCC2)nc1-c1ncnc2[nH]ccc12 | – | 64.1 | –
7 | Cc1nn(CC2CC2)nc1-c1ncnc2[nH]ccc12 | 444 | 44.8 | IC50 [2]: 2440 nM
8 | Cc1nn(CC2CCC2)nc1-c1ncnc2[nH]ccc12 | – | 49.8 | –
9 | C=C(C)Cn1nc(C)c(-c2ncnc3[nH]ccc23)n1 | 142 | 52.7 | –
